PubChem BioAssay (NCI)
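1) Cells in 96-well plates. 2) Compound, 48 h, 5 concentrations. 3) Linear interpolation between surrounding doses. 4) Unreached endpoint = highest concentration. TGI is the concentration that stops growth completely.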

Legend:
Experiment in all cases: growth of human tumour cells (NCI), 48 h
A498 renal = tested on: A498 renal
COLO 205 colon = tested on: COLO 205 colon
786-0 renal = tested on: 786-0 renal
SF-268 CNS = tested on: SF-268 CNS
OVCAR-5 ovarian = tested on: OVCAR-5 ovarian
A549 NSCLC = tested on: A549 NSCLC
ACHN renal = tested on: ACHN renal
SNB-19 CNS = tested on: SNB-19 CNS
SW-620 colon = tested on: SW-620 colon
NCI-H226 lung = tested on: NCI-H226 lung
SK-MEL-2 melanoma = tested on: SK-MEL-2 melanoma
CCRF-CEM leukemia = tested on: CCRF-CEM leukemia
HT29 colon = tested on: HT29 colon
M19-MEL melanoma = tested on: M19-MEL melanoma
KM12 colon = tested on: KM12 colon
OVCAR-3 ovarian = tested on: OVCAR-3 ovarian
U251 CNS = tested on: U251 CNS
HOP-92 NSCLC = tested on: HOP-92 NSCLC
UO-31 renal = tested on: UO-31 renal
TK-10 renal = tested on: TK-10 renal
XF 498 CNS = tested on: XF 498 CNS
MOLT-4 leukemia = tested on: MOLT-4 leukemia
RPMI-8226 leukemia = tested on: RPMI-8226 leukemia
KM20L2 colon = tested on: KM20L2 colon
SF-539 CNS = tested on: SF-539 CNS
OVCAR-4 ovarian = tested on: OVCAR-4 ovarian
CAKI-1 renal = tested on: CAKI-1 renal
NCI-H460 lung = tested on: NCI-H460 lung
HCC-2998 colon = tested on: HCC-2998 colon
LOX IMVI melanoma = tested on: LOX IMVI melanoma
SK-MEL-5 melanoma = tested on: SK-MEL-5 melanoma
EKVX NSCLC = tested on: EKVX NSCLC
SK-MEL-28 melanoma = tested on: SK-MEL-28 melanoma
IGROV1 ovarian = tested on: IGROV1 ovarian
MALME-3M melanoma = tested on: MALME-3M melanoma
HL-60(TB) leukemia = tested on: HL-60(TB) leukemia
DLD-1 colon = tested on: DLD-1 colon
UACC-62 melanoma = tested on: UACC-62 melanoma
SK-OV-3 ovarian = tested on: SK-OV-3 ovarian
SF-295 CNS = tested on: SF-295 CNS
DMS 273 small cell lung = tested on: DMS 273 small cell lung
K-562 leukemia = tested on: K-562 leukemia
LXFL 529 NSCLC = tested on: LXFL 529 NSCLC
SN12C renal = tested on: SN12C renal
RXF 393 renal = tested on: RXF 393 renal
M14 melanoma = tested on: M14 melanoma
OVCAR-8 ovarian = tested on: OVCAR-8 ovarian
HCT-15 colon = tested on: HCT-15 colon
UACC-257 melanoma = tested on: UACC-257 melanoma
SNB-75 CNS = tested on: SNB-75 CNS
HCT-116 colon = tested on: HCT-116 colon
HOP-62 NSCLC = tested on: HOP-62 NSCLC
HOP-18 NSCLC = tested on: HOP-18 NSCLC
DMS 114 small cell lung = tested on: DMS 114 small cell lung
SNB-78 CNS = tested on: SNB-78 CNS
NCI-H23 lung = tested on: NCI-H23 lung

## CCC(C)NC1=C(NC(C)=O)C(=O)c2ccccc2C1=O (stereo unspecified)
A498 renal
  TGI: > 75 µM
COLO 205 colon
  TGI: > 75 µM
786-0 renal
  TGI: > 7.5 µM
SF-268 CNS
  TGI: > 75 µM
OVCAR-5 ovarian
  TGI: > 75 µM
A549 NSCLC
  TGI: > 75 µM
ACHN renal
  TGI: > 75 µM
SNB-19 CNS
  TGI: > 75 µM
SW-620 colon
  TGI: > 75 µM
NCI-H226 lung
  TGI: > 75 µM
SK-MEL-2 melanoma
  TGI: > 75 µM
CCRF-CEM leukemia
  TGI: > 75 µM
HT29 colon
  TGI: > 75 µM
M19-MEL melanoma
  TGI: > 75 µM
KM12 colon
  TGI: > 75 µM
OVCAR-3 ovarian
  TGI: > 75 µM
U251 CNS
  TGI: > 75 µM
HOP-92 NSCLC
  TGI: > 75 µM
UO-31 renal
  TGI: > 75 µM
TK-10 renal
  TGI: > 75 µM
XF 498 CNS
  TGI: > 75 µM
MOLT-4 leukemia
  TGI: > 75 µM
RPMI-8226 leukemia
  TGI: 37.9 µM
KM20L2 colon
  TGI: > 75 µM
SF-539 CNS
  TGI: > 75 µM
OVCAR-4 ovarian
  TGI: > 75 µM
CAKI-1 renal
  TGI: > 75 µM
NCI-H460 lung
  TGI: > 75 µM
HCC-2998 colon
  TGI: > 75 µM
LOX IMVI melanoma
  TGI: 40 µM
SK-MEL-5 melanoma
  TGI: > 75 µM
EKVX NSCLC
  TGI: > 75 µM
SK-MEL-28 melanoma
  TGI: > 75 µM
IGROV1 ovarian
  TGI: > 75 µM
MALME-3M melanoma
  TGI: > 75 µM
HL-60(TB) leukemia
  TGI: 43.1 µM
DLD-1 colon
  TGI: > 75 µM
UACC-62 melanoma
  TGI: > 75 µM
SK-OV-3 ovarian
  TGI: > 75 µM
SF-295 CNS
  TGI: > 75 µM
DMS 273 small cell lung
  TGI: > 75 µM
K-562 leukemia
  TGI: > 75 µM
LXFL 529 NSCLC
  TGI: > 75 µM
SN12C renal
  TGI: > 75 µM
RXF 393 renal
  TGI: > 75 µM
M14 melanoma
  TGI: > 75 µM
OVCAR-8 ovarian
  TGI: > 75 µM
HCT-15 colon
  TGI: > 75 µM
UACC-257 melanoma
  TGI: > 75 µM
SNB-75 CNS
  TGI: > 75 µM
HCT-116 colon
  TGI: > 75 µM
HOP-62 NSCLC
  TGI: > 75 µM
HOP-18 NSCLC
  TGI: > 75 µM
DMS 114 small cell lung
  TGI: > 75 µM
SNB-78 CNS
  TGI: > 75 µM
NCI-H23 lung
  TGI: > 75 µM
